Assay results from patent US8895597B2, “Combination of local temozolomide with local BCNU” (priority 2010, dated 2014).

Legend:
F98 glioma = experiment: Efficacy of local TMZ, local BCNU and XRT, intracranial F98 glioma (resistant to alkylating agents); assay type: in vivo, F344 rats; conditions: without XRT
9L gliosarcoma = experiment: Efficacy of local TMZ, local BCNU and XRT, intracranial 9L gliosarcoma (second experiment); assay type: in vivo, F344 rats; conditions: without XRT
Excerpt: TMZ, provided by the National Institute of Health/National Cancer Institute, (Bethesda, Md.), was incorporated into a polyanhydride CPP:SA 20:80 polymer at concentrations of 50% (w/w) by methods as described by Tamargo, et al., Cancer Res. 53(2):329-333 (1993). BCNU was purchased from the Johns Hopkins Hospital pharmacy (Bristol Meyers; Princeton, N.J.) and polymers were made at concentrations of 3.8% (w/w) in a similar fashion. The polymers were then pressed into discs weighing approximately 10 mg. Blank polymers (100% CPP:SA) were made in an analogous manner. In vitro release kinetics, biodistribution studies, and studies to determine maximally tolerated dose of BCNU and TMZ polymers as described by Brem, et al., Cancer Chemother. Pharmacol. 60(5):643-650 (2007); Tamargo, et al., Cancer Res. 53(2):329-333 (1993); and Grossman, et al., J. Neurosurg. 76(4):640-647 (1992). Polymers were stored at −20° C. until use.
The 9L gliosarcoma was obtained from Dr. M. Barker at the University of California-San Francisco Brain Tumor Research Center (San Francisco, Calif.). […]
To determine the efficacy of the combination of locally delivered TMZ with locally delivered BCNU and XRT, tumor-bearing rats were randomized into groups of sixteen for treatment on post-operative Day 5. […] Any animals appearing moribund were sacrificed and date of death recorded. […]

Cn1nnc2c(C(N)=O)ncn2c1=O [50 mg/kg oral TMZ, temozolomide]
Long-term survivors (%) (F98 glioma; alive at Day 120): 0%
Median survival (days) (F98 glioma; range in brackets): 15 (13-18) days
Long-term survivors (%) (9L gliosarcoma; alive at Day 120): 0%
Median survival (days) (9L gliosarcoma; range in brackets): 24 (14-33) days
